These results are taken from PubChem BioAssay AID179 (DTP/NCI, 2004).

The term EC50 denotes the concentration that produces a half-maximal response. By IC50 is commonly meant the midpoint of a concentration-inhibition curve. Higher therefore signals weaker potency.

The subject of the test is CEM cells HIV-1 protection, formazan growth assay. The test can be described thus: NCI AIDS Antiviral Assay. To be noted: for IC50: measured here: growth of uninfected CEM cells. Put shortly: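 Category rules: moderately active means at least 50% protection on retest, and confirmed active means 100% protection reproducibly. The underlying data came from a formazan growth assay in HIV-1-infected CEM cells.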

Calls of active or inactive are those of the source.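 How the source made its calls: active means compounds giving half or more protection of infected cells from virus-caused growth loss, again on retest; inactive means the rest.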 Where a SMILES comes first, the peptide text is derived from it. Bounds are passed on as bounds.

Turning to `CC(C)(C)C1CCC2c3c([nH]c4ccccc34)C3C(=O)N(c4ccc5c(c4)C(=O)c4ccccc4C5=O)C(=O)C3C2C1` (stereo unspecified), the EC50 is over 200 µM and the IC50 was over 200 µM.

On to `O=c1[nH]cnc2c1sc(=S)n2-c1ccccc1`, for which the EC50 was over 100 µM and the IC50 is 70.8 µM.

For the molecule `Cc1cc(C)c2c(n1)sc1c(=O)n(N)c(C)nc12`, the outcome was inactive.

As for `CC(C)(C)OC(=O)c1ccc(NCc2cc(O)ccc2O)cc1`, the EC50 is over 200 µM and the 50% inhibitory concentration (IC50) is 3.16 µM.

In the case of `CN1CCC(SC2Cc3cc(Cl)ccc3Sc3ccccc32)CC1` (stereo unspecified), the EC50 is over 69.2 µM and the half-inhibitory concentration (IC50) is 12 µM.

As to `CN(C)CCc1ccnc2nc(-c3ccc4ccccc4c3)cn12`, the EC50 was over 200 µM and the half-inhibitory concentration (IC50) was determined as 32.4 µM.

Turning to `CC(=O)NCCCCCCNC(C)=O`, the EC50 is over 1260 µM and the IC50 was over 1260 µM.

Consider `CN(CCc1ccccn1)c1nc(=[N+](C)C)ss1`, for which the outcome was inactive.

Turning to `O=c1[nH][nH]c(=O)c2c1nc(SCc1ccc(Br)cc1)n2Cc1ccccc1`, the EC50 was over 214 µM and the IC50 was over 214 µM.

Regarding `O=S(=O)(O)SCCNCC(O)C(O)CNCCSS(=O)(=O)O` (stereo unspecified), the EC50 was over 617 µM and the IC50 stood at 120 µM.

For the molecule `CN(C)CCC(/C=C/c1ccccc1)=N\Nc1ccc(Cl)cc1`, the EC50 was over 100 µM and the half-inhibitory concentration (IC50) was determined as 10.7 µM.

In the case of `CC(=O)Oc1ccc(/C=C/C(=O)OCCCOC(=O)/C=C/c2ccc(OC(C)=O)c(OC(C)=O)c2)cc1OC(C)=O`, the EC50 is over 100 µM and the 50% inhibitory concentration (IC50) was over 100 µM.

In the case of `CN=c1ssc(/N=C(\SC)N(C)C)[n+]1C`, the outcome was inactive.

Regarding `CC(=O)c1ccc2c(c1)CC1(C2)Cc2ccc3c(c2C1=O)CCC3` (stereo unspecified), the EC50 was over 200 µM and the IC50 came to 33.1 µM.

Turning to `COC1=C2C=[N+](C)C3C(=C2C=CC1OC)Cc1cc2c(cc13)OCO2` (stereo unspecified), the EC50 is over 631 µM and the IC50 turned out to be 3.63 µM.

In the case of `C[N+]12CC[N+](C)(CC1)CC2`, the EC50 is over 832 µM and the IC50 is over 832 µM.

Take `O/N=C1/CCCCC1NO` (stereo unspecified): the EC50 was over 200 µM and the IC50 is 117 µM.

As for `Cc1cc(C#N)c(Nc2ccccc2[N+](=O)[O-])s1`, the EC50 was over 200 µM and the IC50 was 42.7 µM.

`O=[N+]([O-])c1ccc(C2ON=C(c3ccccc3)N2C23CC4CC(CC(C4)C2)C3)cc1` (stereo unspecified): the EC50 was over 200 µM and the IC50 is 186 µM.

Consider `COc1ccc(C(=O)/C=C/c2ccc(OCCSCCCCCCCCCCSCCOc3ccc(/C=C/C(=O)c4ccc(OC)c(OC)c4)cc3)cc2)cc1OC`, for which the result was inactive.

As to `COc1ccc(NC(=O)CC(=O)N2N=C(c3ccccc3)C(N=Nc3ccc(S(=O)(=O)CCOS(=O)(=O)O)cc3)C2=O)cc1` (stereo unspecified), the EC50 was over 200 µM and the IC50 is over 200 µM.

Regarding `COC(=O)c1nc2c(C)c(O)c(Oc3c(C)c(O)c(O)c([C@H](C)CCC=C(C)C)c3O)c([C@H](C)CCC=C(C)C)c2o1`, the EC50 is over 200 µM and the IC50 is 7.94 µM.

As for `O=C1C2ON3c4ccccc4C(=O)C3(c3ccccc3)C2C(=O)N1c1ccccc1` (stereo unspecified), the EC50 was over 18.2 µM and the IC50 was over 18.2 µM.

For `O=c1ccn(C2OC(CO)C(O)C2[Se]c2ccccc2)c(=O)[nH]1` (stereo unspecified), the EC50 is over 200 µM and the 50% inhibitory concentration (IC50) was over 200 µM.

Take `COc1ccc(C(=O)C(C(=O)C(=O)Nc2ccc(Cl)c(Cl)c2)c2ccc(OC)cc2)cc1` (stereo unspecified): the EC50 is over 75.9 µM and the IC50 was over 75.9 µM.

Take `Cc1cc2c(c(C(=O)O)c1C)-c1cccc(Cl)c1C2=O`: the outcome was inactive.

Take `CN(C)c1ccc2nc(CC(O)(C(F)(F)F)C(F)(F)F)ccc2c1`: the EC50 was over 200 µM and the IC50 is over 200 µM.

Take `CC(NC(=O)CNC(=O)C(N)CO)C(=O)NC(CCC(=O)O)C(=O)NC(CCCCN)C(=O)NC(C(=O)NC(CCC(N)=O)C(=O)NC(CCC(=O)O)C(=O)NC(CCC(N)=O)C(=O)NC(CCCN=C(N)N)C(=O)NC(C)C(=O)NC(CC(N)=O)C(=O)NC(C)C(=O)NC(Cc1cnc[nH]1)C(=O)NC(CO)C(=O)O)C(C)O` (stereo unspecified) (H-SGAEKTQEQRANAHS-OH; configuration not given here): the EC50 is over 100 µM and the IC50 was over 100 µM.

Consider `N#C/C(=C(\O)c1ccccc1)c1nc2ccccc2[nH]1`, for which the EC50 was over 69.2 µM and the IC50 is over 69.2 µM.

In the case of `Nn1c(=S)[nH]c2ccccc2c1=O`, the EC50 is over 200 µM and the IC50 was over 200 µM.

Consider `COc1ccc2[nH]c3c(c2c1)COc1ccccc1C3=O`, for which the EC50 was over 200 µM and the IC50 is over 200 µM.

Take `O/N=C1\CCc2cc3c(cc21)CCC3`: the EC50 is over 200 µM and the IC50 came out at 155 µM.

As for `CS(=O)(=O)OCCN(CCOS(C)(=O)=O)c1ccc(C=O)cc1`, the EC50 is over 200 µM and the IC50 was 0.479 µM.

With `COc1ccc(/C(C)=N/NC(N)=S)c(OC)c1`, the outcome was inactive.

For the molecule `CC(C)(O)/C1=C/C=C/CCCCCCCCCC1`, the EC50 was over 200 µM and the IC50 was 34.7 µM.

Consider `CCOP(=O)(OCC)C(N)C(C)C` (stereo unspecified), for which the EC50 was over 513 µM and the IC50 is over 513 µM.

Turning to `CC(=C/c1ccccc1)/C=C1/SC(=S)N(C=C2C(=O)NC(=O)NC2=O)C1=O`, the EC50 was over 200 µM and the IC50 came to 60.3 µM.

Take `Cn1ccnc1SC(F)(F)c1nc2ccccc2o1`: the EC50 was over 200 µM and the IC50 came to 148 µM.

Regarding `COC(=O)C(COC(=O)/C=C/c1ccc(OC(C)=O)c(OC(C)=O)c1)OC(=O)/C=C/c1ccc(OC(C)=O)c(OC(C)=O)c1` (stereo unspecified), the EC50 is over 200 µM and the IC50 came to 25.7 µM.

`O=c1cc(CO)[nH]cc1O`: the result was inactive.

In the case of `CP(C)CC[PH+](CC[PH+](C)C)CC[PH+](C)C.[C-]#[O+].[C-]#[O+].[W]`, the outcome was inactive.

As for `O=C1CSC(=O)N1c1ccccc1`, the EC50 was over 186 µM and the IC50 is over 186 µM.

On to `COc1ccc(C2=C(OC(=O)N(C)C)c3cccn3-c3cc(C(F)(F)F)ccc3S2)cc1`, for which the EC50 was over 200 µM and the 50% inhibitory concentration (IC50) is over 200 µM.

As to `CCN1C[C@]2(CO)CCC(O)C34[C@@H]5C[C@@H]6C(OC(C)=O)[C@@H]5[C@](OC(C)=O)(C[C@@H]6OC)[C@@H](C(OC)[C@@H]32)[C@H]14` (stereo partly specified), the result was inactive.

With `Cc1cccnc1/N=C/c1c(O)n(C)c(=O)[nH]c1=O`, the EC50 was over 200 µM and the IC50 is over 200 µM.

Take `CCOC(=O)Cc1nc(/C(C#N)=C/c2ccco2)[nH]c(=O)c1C#N`: the outcome was inactive.

For the molecule `C=CC(C)(C)[C@@]12CC3C(=O)N[C@@H](Cc4ccccc4)C(=O)N3[C@@H]1N(C(C)=O)c1ccccc12` (stereo partly specified), the EC50 is over 81.3 µM and the IC50 turned out to be 70.8 µM.

For the molecule `Nc1nc(NC2CC2)c2ncn(C3C=CC(CO)CC3)c2n1` (stereo unspecified), the EC50 is over 200 µM and the IC50 was over 200 µM.

With `COc1cc(OC)nc(NC(=O)NS(=O)(=O)c2cccc3ncn(C)c(=O)c23)n1`, the result was inactive.

For the molecule `CCO[C@]12C[C@H](OC)[C@@]3(O)CC(C1[C@H]3O)C13C4C2[C@H](OC)C1[C@](COC)(CN4CC)[C@H](O)C[C@@H]3OC` (stereo partly specified), the EC50 was over 200 µM and the IC50 worked out at 1.58 µM.

As for `CCOc1ccc2nc(NC(=O)CC(C)=O)sc2c1`, the EC50 was over 200 µM and the IC50 worked out at 27.5 µM.
